Laboratory results: patent US8519136B2, “Aminopyridine derivatives having aurora a selective inhibitory action” (MSD K.K., priority 2008, dated 2013)
Structures can show the parent of a compound that is named as a salt.

Legend:
[1] = tested on: Human cervical cancer cells (HeLa S3); test: Effect by combined use of drugs in cells (with docetaxel), WST-8 method; assay type: cell-based; conditions: HeLa S3, three days; for inhibition at 0.03 µM: compound 30 nM alone
Method: Fetal calf serum (FCS) was purchased from Moregate Biotech, DMEM medium from Invitrogen Corp., docetaxel (tradename: Taxere) from Sigma-Aldrich, Inc., and WST-8 from Kishida Chemical Co., Ltd.
(§1) Human cervical cancer cells (HeLa S3) were obtained from the American Type Culture Collection (ATCC).
Cells were suspended in a DMEM medium containing 10% FCS, and the cell suspension was dispensed to two 96-well plastic plates at a rate of 750 cells/100 microliters per well. The plates were incubated overnight in 5% CO2-95% air at 37° C. A drug was subjected to graded dilution in dimethylsulfoxide and further diluted with DMSO or with a DMEM medium containing 10% FCS and also containing 0.6 nM docetaxel. Then, the dilutions were each dispensed to one of the plates on which cells had been disseminated, at a rate of 100 microliters per well. The final concentration of docetaxel at this stage was 0.3 nM. Also, the concentrations in the case of sole administration of the compound according to the invention were 0.003, 0.01, 0.03, 0.1, 0.3, 1, 3 and 10 μM. The plates were incubated for further three days in 5% CO2-95% air at 37° C. Cell growth after incubation was measured by the WST-8 method (H. Tominaga, et al., Anal. Commun., 36, 47-50 (1999)). Here, the WST-8 method refers to a method in which 20 microliters of a WST-8 reagent solution is added to each well, incubation is conducted at 37° C. for 60 minutes, the plate is stirred, and the amount of formazan produced is measured by a colorimetric method to determine the inhibitory rate of the drug. The growth inhibitory effects of docetaxel and of the compound according to the invention were determined, with the value obtained in sole treatment of DMSO being defined as 0%.

[2] = target: T1, GST-tagged human Aurora B(AurB)/His-tagged human INCENP complex proteins (Homo sapiens, UniProt Q96GD4); test: Aurora B inhibitory activity (Method A, IMAP kit); assay type: biochemical; conditions: 40 μM ATP, 25° C., 45 minutes
T1 construct: GST; purchased Carna Biosciences, Inc
Method: An assay development kit for IMAP (registered trademark) (Aurora B), purchased from Carna Biosciences, Inc., was used for phosphorylation reaction, and the phosphorylation of a substrate was detected using the IMAP technology. The assay development kit used is comprised of an assay buffer, GST-tagged human Aurora B(AurB)/His-tagged human INCENP complex proteins (amino acid sequence: 803-916, AAU04398.1), and an ATP/substrate solution. Using the same, the phosphorylation reaction was conducted in accordance with a partially revised protocol attached to the kit, and then the phosphorylation of the substrate was detected using the IMAP technology.
For the phosphorylation reaction, 384 well plate was used, and the reaction volume was 10 μl/well. The composition of the reaction buffer (assay buffer) is comprised of 20 mM of HEPES buffer (pH 7.4), 0.01% Tween-20, and 2 mM of dithiothreitol (DTT). Thereto, AurB/INCENP complex protein, 100 nM of the substrate, and 40 μM of ATP, and 1 mM of magnesium salt were added, and then the reaction was conducted at 25° C. for 45 minutes. Thereafter, in order to terminate and detect the reaction, 30 μl of the IMAP (registered trademark) binding reagent (IMAP Progressive Binding Reagent, R7284) that had been diluted (1:400) in the 1×IMAP binding buffer A (IMAP Progressive Binding Buffer A, 5× stock, R7282) was added to each well. The solution stood still for 60 minutes in the dark, and then fluorescence polarization was measured using a high-end microplate reader (excitation wavelength: 485 nm; emission wavelength: 520 nm).
(§2) The compound to be tested was added to the reaction system such that a dilution series of the compound in DMSO was prepared, and then 0.5 μL of this solution was added for the testing to each well. Each control well was provided by adding 0.5 μL of DMSO to the well in place of the DMSO solution containing the compound to be tested.

[3] = tested on: Human cervical cancer cells (HeLa S3); test: Cell growth inhibitory effect, WST-8 method; assay type: cell-based; conditions: 72 h, HeLa S3, three days incubation, read-out: Cell growth inhibitory effect (HeLaS3) (IC50)
Method: Fetal calf serum (FCS) was purchased from Moregate Biotech, and DMEM medium was purchased from Invitrogen Corp. WST-8 was purchased from Kishida Chemical Co., Ltd.
as §1
Cells were suspended in a DMEM medium containing 10% FCS, and the cell suspension was dispensed to a 96-well plastic plate at a rate of 750 cells/100 microliters per well. The plate was incubated overnight in 5% CO2-95% air at 37° C. A drug was subjected to graded dilution in dimethylsulfoxide and further diluted with a DMEM medium containing 10% FCS. Then, the dilution was dispensed to the plate on which cells had been disseminated, at a rate of 100 microliters per well. The plate was incubated for further three days in 5% CO2-95% air at 37° C. Cell growth after incubation was measured by the WST-8 method (H. Tominaga, et al., Anal. Commun., 36, 47-50 (1999)). Here, the WST-8 method refers to a method in which 20 microliters of a WST-8 reagent solution is added to each well, incubation is conducted at 37° C. for 60 minutes, the plate is stirred, and the amount of formazan produced is measured by a colorimetric method to determine the inhibitory rate of the drug. The concentration for 50% growth inhibition (IC50, μM) of the compound was determined.

[4] = target: T2, His-tagged human Aurora A (Homo sapiens, UniProt O14965); test: Aurora A inhibitory activity (IMAP fluorescence polarization); assay type: biochemical; conditions: 20 μM ATP, 30° C., 120 minutes
T2 construct: His (N); made in house; host or cells: Escherichia coli BL21-CodonPlus(DE3)-RIL
T2 sequence (O14965 1-403): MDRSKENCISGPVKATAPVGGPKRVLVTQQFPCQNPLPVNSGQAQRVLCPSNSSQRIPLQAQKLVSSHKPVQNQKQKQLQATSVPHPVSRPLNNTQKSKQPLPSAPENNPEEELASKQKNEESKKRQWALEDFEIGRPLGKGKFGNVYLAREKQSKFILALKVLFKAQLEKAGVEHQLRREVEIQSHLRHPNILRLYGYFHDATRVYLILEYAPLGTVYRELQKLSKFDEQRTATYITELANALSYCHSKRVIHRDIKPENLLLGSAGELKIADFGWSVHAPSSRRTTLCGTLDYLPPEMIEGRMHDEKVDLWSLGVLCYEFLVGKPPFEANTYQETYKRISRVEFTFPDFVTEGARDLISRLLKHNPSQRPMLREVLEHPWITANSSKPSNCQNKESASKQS
From the text: cDNA of N-terminal His-tagged human Aurora A was integrated into an expression vector, which was then highly expressed in Escherichia coli BL21-CodonPlus(DE3)-RIL cells. The Escherichia coli was harvested and lysed, and then the His-tagged human Aurora A protein was applied onto a nickel chelate column and eluted from the column with imidazole. The active fractions were desalted with a desalting column to give a purified enzyme.
For measurement of the activity of Aurora A, the substrate used was a synthetic peptide (5-FAM (5-carboxyfluorescein)-γ-aminobutyric acid-Ala-Leu-Arg-Arg-Ala-Ser-Leu-Gly-NH2) (SEQ.ID.NO.: 1), which was purchased from Toray Research Center, Inc.
For the phosphorylation reaction, the method by Upstate, Inc. [Kinase Profiler™ Assay Protocols] was referred to, and phosphorylation of the substrate was detected using IMAP® technology (Molecular Devices, Co. Ltd.) (Gaudet E W. et. al, J. Biomol. Screen, 8, 164-175 (2003)). Concretely, the phosphorylation reaction and the detection were carried out as follows:
The phosphorylation reaction was conducted using 384 well plate, and the reaction volume was 10 μl/well. The reaction buffer is comprised of 50 mM Tris-chloride buffer (pH 7.4), 15 mM magnesium acetate, and 0.2 mM ethylenediamine-N,N,N′,N′-tetraacetic acid (EDTA). Thereto, the purified Aurora A protein, 100 nM of the peptide substrate, and 20 μM of adenosine 5′-triphosphate (ATP) were added, and then the reaction was carried out at 30° C. for 120 minutes.
Thereafter, in order to terminate and detect the reaction, 30 μl of the IMAP (registered trademark) binding reagent (IMAP Progressive Binding Reagent, R7284) that had been diluted (1:400) in the 1×IMAP binding buffer A (IMAP Progressive Binding Buffer A, 5× stock, R7282) was added to each well. The solution stood still for 60 minutes in the dark, and then fluorescence polarization was measured using a high-end microplate reader (excitation wavelength: 485 nm; emission wavelength: 520 nm).
as §2, with “in dimethylsulfoxide (DMSO)” for “in DMSO”

[5] = Homo sapiens, HeLa S3, 72 h, read-out: Cell growth inhibitory effect by sole administration of the compound of Example (%)
[6] = compound 30 nM + docetaxel 0.3 nM

T1 sequence (Q96GD4 whole entry): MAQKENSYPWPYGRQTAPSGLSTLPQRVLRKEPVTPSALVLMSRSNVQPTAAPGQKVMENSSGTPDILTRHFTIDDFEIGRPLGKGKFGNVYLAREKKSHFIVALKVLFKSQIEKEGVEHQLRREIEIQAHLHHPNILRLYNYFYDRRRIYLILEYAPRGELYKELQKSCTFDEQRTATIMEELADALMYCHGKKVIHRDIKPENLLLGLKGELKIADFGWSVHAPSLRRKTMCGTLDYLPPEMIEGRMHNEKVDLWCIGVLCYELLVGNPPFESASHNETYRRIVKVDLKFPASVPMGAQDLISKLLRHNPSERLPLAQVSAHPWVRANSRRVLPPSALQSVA
T1 sequence (Q9NQS7 803-916 partner limits assumed): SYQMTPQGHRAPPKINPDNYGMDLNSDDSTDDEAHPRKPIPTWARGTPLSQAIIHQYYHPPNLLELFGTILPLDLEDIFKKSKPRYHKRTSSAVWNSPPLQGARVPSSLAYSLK

## O=C(c1cccc(C(F)(F)F)c1F)N1CCC(Cc2cccc(Nc3cc[nH]n3)n2)(c2n[nH]c(=O)o2)CC1 [Example 9, 5-(1-(2-fluoro-3-(trifluoromethyl)benzoyl)-4-((6-(1H-pyrazol-3-ylamino)pyridin-2-yl)methyl)piperidin-4-yl)-1,3,4-oxadiazol-2(3H)-one]
[1]; [5]
  inhibition at 0.03 µM: 20.3%
[1]; [6]
  Cell growth inhibitory effect by combined administration of docetaxel and the compound of Example (%): 90.9%
[2]
  IC50: 35.8 nM
[3]
  IC50: 220 nM
[4]
  IC50: 0.25 nM

## O=C(c1cccc(Cl)c1F)N1CCC(Cc2cccc(Nc3cc[nH]n3)n2)(c2n[nH]c(=O)o2)CC1 [Example 10, 5-(1-(3-chloro-2-fluorobenzoyl)-4-((6-(1H-pyrazol-3-ylamino)pyridin-2-yl)methyl)piperidin-4-yl)-1,3,4-oxadiazol-2(3H)-one trifluoroacetate]
[1]; [5]
  inhibition at 0.03 µM: 3.3%
[1]; [6]
  Cell growth inhibitory effect by combined administration of docetaxel and the compound of Example (%): 84.8%
[2]
  IC50: 166 nM
[3]
  IC50: 280 nM
[4]
  IC50: 0.27 nM

## O=C(c1cccc(Cl)c1F)N1CCC(Cc2cc(-c3ccccc3)cc(Nc3cc[nH]n3)n2)(c2n[nH]c(=O)o2)CC1 [Example 17, 5-(1-(3-chloro-2-fluorobenzoyl)-4-((4-phenyl-6-(1H-pyrazol-3-ylamino)pyridin-2-yl)methyl)piperidin-4-yl)-1,3,4-oxadiazol-2(3H)-one]
[1]; Homo sapiens, HeLa S3, 72 h, compound 10 nM alone, read-out: Cell growth inhibitory effect by sole administration of the compound of Example (%)
  inhibition at 0.01 µM: 4.2%
[1]; compound 10 nM + docetaxel 0.3 nM
  Cell growth inhibitory effect by combined administration of docetaxel and the compound of Example (%): 80.8%
[2]
  IC50: 381 nM
[3]
  IC50: 100 nM
[4]
  IC50: 0.3 nM
